Source: patent US20060252698A1, “Compounds for inhibiting cathepsin activity” (priority 2005, published 2006)
Starred links: 1 amine or outer side, 2 acyl side, 3 side chain; linkers in the order of their positions; H or OH if unused. Non-standard residues stand in square brackets, D forms with d. Residues, ends and D or L forms follow the SMILES beside them. *: point of attachment. Isobutyloxycarbonyl = CC(C)COC(=O)*; X2 = CCCC(N[*:1])C(=O)C(=O)[*:2]; Tic = O=C(O)[C@@H]1Cc2ccccc2CN1; Chg = N[CH](C(=O)O)C1CCCCC1; Phg = N[CH](C(=O)O)c1ccccc1; Boc = CC(C)(C)OC(=O)*

Target: T1, Human Liver Cathepsin L (Homo sapiens, UniProt P07711)
T1 construct: purchased Calbiochem 219402
Experiment: Cathepsin L inhibition assay (kinetic, Z-Phe-Arg-pNA substrate)
Assay type: biochemical
Conditions: Z-Phe-Arg-pNA 120 μM, enzyme 12 nM, pH 5.5, read at 410 nm
Description: Cathepsin Assay Protocols:
• 1. 96-well Round or V-bottom microplates for dilutions • 2. 96-well COSTAR UV microplates for assay (COSTAR cat.#3635) • 3. Bio-Spin 6 Chromatography Columns (BIO-RAD cat.#732-6002). • 4. 12-75 mm test tubes • 5. Falcon 50 ml tubes • 6. Falcon 14 ml tubes • 7. 1.5 ml eppendorf tube • 8. ≦10 ml buffer reservoir Reagents: • 1. Enzyme: Cathepsin G, M.W.23,500, 10 μM stock. • 2. Substrate:Suc-Ala-Ala-Pro-Phe-pNA, M.W. 624.65, prep. 100 mM [62.465 mg/ml] stock. • 3. Buffer: [50 mM HEPES, 500 mM NaCl, 5 μM EDTA, pH 7.14], 5 μM DTT Instrument Settings: SpectraMax Plus • 1. Kinetic assay reading@405 nm • 2. Read interval: 30 seconds • 3. Time: 1 hour • 4. OD Min: −0.001 • 5. OD Max: 0.5 • 6. Data Mode: Absorbance • 7. e405=194.078 μM/O.D. Procedure: • 1. Add 73 μl of buffer to all wells. • 2. Add […] of buffer to (−E) controls. • 3. Add 7 μl of sample and/or DMSO for controls to appropriate wells. • 4. Prep. substrate: 100 mM (62.465 mg/ml) stock in 100% DMSO. • 5. Dilute 1:20 in buffer. 75 μl in 1.425 ml. 5 mM final. • 6. Add 20 μl of 5 mM substrate to all wells. 500 μM final. • 7. Dilute enzyme (1:50) in buffer; Add 120 μl to 5,880 μl buffer. 2×[200 nM] final. • 8. Add 100 μl of 2× [200 nM] enzyme to assigned wells, except (−E) controls. [100 nM] final. • 11. Vortex 20 seconds. Read@ 405 nM every 30 seconds for 1 hour on SpectraMax Plus • Endpoint assay reading plate@ 600 nM. Used for the detection of precipitation. Cathepsin H: Materials: • 1. 96-well Round or V-bottom microplates for dilutions • 2. 96-well COSTAR UV microplates for assay (COSTAR cat.#3635) • 3. Bio-Spin 6 Chromatography Columns (BIO-RAD cat.#732-6002) • 4. 12-75 mm test tubes • 5. Falcon 50 ml tubes • 6. Falcon 14 ml tubes • 7. 1.5 ml eppendorf tube • 8. ≧10 ml buffer reservoir Reagents: • 1. Enzyme: Cathepsin H, M.W.28,000, 9.07 μM stock. • 2. Substrate:H-Arg-pNA, M.W. 367.2, prep. 50 mM [18.36 mg/ml] stock. • 3. Buffer: [100 mM NaP04, 1 mM EDTA, 1 mM DTT, pH 6.5 Instrument Settings: SpectraMax Plus • 1. Kinetic assay reading@410 nM • 2. Read interval: 30 seconds • 3. Time: 1 hour • 4. OD Min: −0.001 • 5. OD Max: 0.05 • 6. Data Mode: Absorbance • 7. e410=188.415 μM/O.D. Km=108±5 μM Procedure: • 1. Prep. substrate: 50 mM (18.36 mg/ml) stock in 100% DMSO. • 2. Add 73 μl of buffer to all wells. • 3. Add 7 μl of sample to appropriate wells: a.) 100% DMSO for (+E) & (−E) controls. • 4. Add 100 μl of buffer to (−E) controls. • 5. Dilute substrate (1:20) in buffer; Add 140 μl to 2.66 ml buffer while vortexing. [2.5 mM] final. • 6. Add 20 μl of substrate to all wells. Vortex 3-5 seconds. [250 μM] final. • 7. Dilute enzyme (1:64.8) in buffer; Add 179 μl to 11.418 ml buffer. 2× [140 nM] final. • 8. Add 100 μl of 2× [140 nM] enzyme to assigned wells, except (−E) controls. [70 nM] final. • 9. Read@410 nM every 30 seconds for 1 hour on SpectraMax Plus Cathepsin L: Materials: • 1. 96-well Round or V-bottom microplates for dilutions • 2. 96-well COSTAR UV microplates for assay (COSTAR cat.#3635) • 3. Falcon 50 ml tubes • 4. Falcon 14 ml tubes • 5. 1.5 ml eppendorf tube • 6. 10 ml buffer reservoir Reagents: • 1. Enzyme: Calbiochem #219402: Cathepsin L, M.W.29,000, 11.62 μM stock. Lot#B45683 • 2. Substrate: Bachem #L-1242: Z-Phe-Arg-pNA, M.W. 612.09, prep. 4.8 mM [2.938 mg/ml] stock in 100% DMSO. • 3. Buffer: [100 mM NaP04, 1 mM EDTA, pH 5.5] Supplement buffer w/1 mM DTT, day of assay. Experiment #1: • Instrument settings: SpectraMax Plus microtiter plate reader (Molecular Devices, Sunnydale, Calif.) • 1. Kinetic assay reading@410 nM • 2. Read interval: 30 seconds • 3. Time: 1 hour • 4. OD Min: −0.001 • 5. OD Max: 0.05 • 6. Data Mode: Absorbance • 7. ε410=161.311 μM/O.D. Km=56±8 μM Procedure: • 1. Add 88 μl of buffer to all wells. • 2. Add 7 μl of sample or 100% DMSO to appropriate wells. • 3. Add 100 μl of buffer to (−E) controls. • 5. Add 5 μ 4.8 mM] substrate to all wells. [120 μM] final. • 6. Vortex 3-5 seconds. • 7. Dilute enzyme (1:483.87) in buffer; Add 24.8 μl to 12,000 μl buffer. 2×[24 nM] final. • 8. […]

T1 sequence (P07711 114-288 limits assumed): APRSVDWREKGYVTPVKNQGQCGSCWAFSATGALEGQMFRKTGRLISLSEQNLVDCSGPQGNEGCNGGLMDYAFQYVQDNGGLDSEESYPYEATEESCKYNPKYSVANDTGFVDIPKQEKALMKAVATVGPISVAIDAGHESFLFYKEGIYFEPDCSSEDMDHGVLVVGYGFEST
T1 sequence (P07711 292-333 limits assumed): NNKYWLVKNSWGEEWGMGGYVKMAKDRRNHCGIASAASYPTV

Structure (SMILES) | Ki [µM]
C=CCNC(=O)C(=O)[C@@H]1CCCCCCCCC[C@H](NC(=O)N[C@H](CN2CCC(C)(C)CC2=O)C(C)(C)C)C(=O)N2C[C@H]3[C@@H]([C@H]2C(=O)N1)C3(C)C | 0.366
CC(C)(C)OC(=O)N[C@H](C(=O)N1C[C@H]2[C@@H]([C@H]1C(=O)NC(CC1CC1)C(=O)C(N)=O)C(C)(C)C2(C)C)C1CCCCC1 (some centres unmarked) | 0.22
CC(C)(C)OC(=O)N[C@H](C(=O)N1CCC[C@H]1C(=O)NC(CC1CCC1)C(=O)C(N)=O)C(C)(C)C (some centres unmarked) | 1.9
CCC[C@H](NC(=O)[C@@H]1[C@H]2CCC[C@H]2CN1C(=O)[C@@H](NC(=O)[C@@H](NC(=O)c1cnccn1)C1CCCCC1)C(C)(C)C)C(=O)C(=O)NC1CC1 | 0.104
C=CCNC(=O)C(=O)C(CCC)NC(=O)[C@@H]1CCCN1C(=O)[C@@H](NC(=O)NC1(CS(C)(=O)=O)CCCCC1)C(C)(C)C (some centres unmarked) | 0.74
CC(C)(C)OC(=O)N[C@H]1CCCCCCCC[C@@H](C(=O)C(N)=O)NC(=O)[C@@H]2[C@@H]3[C@H](CN2C1=O)C3(C)C | 0.55
C=CCNC(=O)C(=O)C(CC1CC1)NC(=O)[C@@H]1[C@H]2C(c3ccccc3)[C@H]2CN1C(=O)[C@@H](NC(=O)NC1(CS(=O)(=O)C(C)(C)C)CCCCC1)C(C)(C)C (some centres unmarked) | 0.35
C=CCCC(NC(=O)[C@H]1C(C(=O)[C@@H](NC(=O)OC(C)(C)C)C2CCCCC2)C[C@@H]2C[C@@H]21)C(=O)C(=O)NCC=C (some centres unmarked) | 1.5
CCCC(NC(=O)[C@@H]1Cc2ccc3cc2CN1C(=O)[C@H](C1CCCCC1)NC(=O)CCCCCCO3)C(=O)C(N)=O (some centres unmarked) | 0.08
CC1(C)CC(=O)N(C[C@@H](NC(=O)N[C@H]2CCCCCCCCC[C@@H](C(=O)C(=O)NC3CC3)NC(=O)[C@@H]3[C@@H]4[C@H](CN3C2=O)C4(C)C)C(C)(C)C)C(=O)C1 | 0.25
CN(C[C@@H](NC(=O)N[C@H](C(=O)N1C[C@H](OC(C)(C)C)C[C@H]1C(=O)NC(CC1CCC1)C(=O)C(N)=O)C1CCCCC1)C(C)(C)C)S(C)(=O)=O (some centres unmarked) | 0.11
CC(C)(C)NC(=O)N[C@H]1CCCCCCCCCC[C@@H](C(=O)C(N)=O)NC(=O)[C@@H]2[C@@H]3[C@H](CN2C1=O)C3(C)C | 0.3
CN(C[C@@H](NC(=O)N[C@H](C(=O)N1C[C@H]2[C@@H]([C@H]1C(=O)N[C@@H](CC(F)F)C(=O)N[C@@H]1C[C@@H]1c1ccccc1)C2(C)C)C(C)(C)C)C(C)(C)C)S(C)(=O)=O | 0.53
CCC1C[C@]1(NC(=O)[C@@H]1C[C@H](Oc2cc(-c3ccccc3)nc3cc(OC)ccc23)CN1C(=O)[C@@H](NC(=O)OC(C)(C)C)C(C)C)C(=O)O (some centres unmarked) | 0.1
CC1C[C@H]2CN(C(=O)[C@@H](NC(=O)OC(C)(C)C)C3CCCCC3)[C@H](C(=O)NC(CC3CC3)C(=O)C(=O)NCC(=O)N[C@H](C(=O)N(C)C)c3ccccc3)[C@H]2C1 (some centres unmarked) | 0.12
CC1(C)[C@@H]2[C@H]3C(=O)N[C@H](C(=O)C(=O)NC4CC4)CCCCCCCCC[C@H](NC(=O)NC4(C5CCCS5(=O)=O)CCCCC4)C(=O)N3C[C@@H]21 (some centres unmarked) | 0.11

The next molecules have a lower Ki than those just listed; values first:

Ki [µM] | Structure (SMILES)
0.025 | CC(C)(C)[C@H](NC(=O)NC1(CS(=O)(=O)C(C)(C)C)CCCCC1)C(=O)N1C[C@H]2[C@@H]([C@H]1C(=O)N[C@@H](CCC1CC1)C(=O)C(=O)NC1CC1)C2(C)C [drawing 662]
0.025 | CC(C)C[C@@H](C(=O)NC(CC1CC1)C(=O)C(N)=O)C1CCCCCC[C@H](NC(=O)OC(C)(C)C)C1=O (some centres unmarked)
0.036 | CCCC(NC(=O)[C@@H]1Cc2ccccc2CN1C(=O)[C@@H](NC(=O)OC(C)(C)C)C1CCCCC1)C(=O)C(=O)NCC(=O)N[C@H](C(=O)NC)c1ccccc1 (some centres unmarked) (Boc-[Chg][Tic][X2]G[Phg]-NHMe)
0.012 | CC1([C@H](NC(=O)NC2(CS(=O)(=O)C(C)(C)C)CCCCC2)C(=O)N2C[C@H]3[C@@H]([C@H]2C(=O)N[C@@H](CCC2CC2)C(=O)C(=O)NC2CC2)C3(C)C)CCCCC1
0.011 | CCCC[C@H](NC(=O)[C@@H]1[C@@H]2[C@H](CN1C(=O)[C@@H](NC(=O)NC1(CS(=O)(=O)C(C)(C)C)CCCCC1)C1(C)CCCCC1)C2(C)C)C(=O)C(=O)NC1CC1
0.02 | C=CCNC(=O)C(=O)C(CC1CC1)NC(=O)[C@@H]1[C@@H]2[C@H](CN1C(=O)[C@@H](NC(=O)N[C@H](CN1C(=O)CC(C)(C)CC1=O)C(C)(C)C)C(C)(C)O)C2(C)C (some centres unmarked)
0.0048 | CC(=O)N[C@@H](CC(C)C)C(=O)N[C@@H](CC(C)C)C(=O)N[C@H](C=O)CCCNC(=N)N [drawing 710]
0.009 | CC(=O)N[C@@H](CC(C)C)C(=O)N[C@@H](CC(C)C)C(=O)N[C@H](C=O)CCCNC(=N)N [drawing 687]
0.063 | CC1(C)C2CN(C(=O)[C@@H](NC(=O)NC3CCCCC3)C(C)(C)C)[C@H](C(=O)NC(CC3CCC3)C(=O)C(N)=O)C21 (some centres unmarked)
0.049 | C=CCNC(=O)C(=O)[C@H](CCCC)NC(=O)[C@@H]1[C@@H]2[C@H](CN1C(=O)[C@@H](NC(=O)NC1([C@H]3CCCS3(=O)=O)CCCCC1)C(C)(C)C)C2(C)C [drawing 672]
0.02 | CCCC[C@H](NC(=O)[C@@H]1[C@@H]2[C@H](CN1C(=O)[C@@H](NC(=O)NC1([C@H]3CCCS3(=O)=O)CCCCC1)C1(C)CCCCC1)C2(C)C)C(=O)C(=O)NC1CC1
0.0019 | CC(=O)N[C@@H](CC(C)C)C(=O)N[C@@H](CC(C)C)C(=O)N[C@H](C=O)CCCNC(=N)N [drawing 688]
0.002 | CCCC(NC(=O)C(CC(C)C)NC(=O)C(NC(=O)OCC(C)C)C1CCCCC1)C(=O)C(=O)NCC(=O)NC(C(N)=O)c1ccccc1 (centres unmarked) (Isobutyloxycarbonyl-[Chg]L[X2]G[Phg]-NH2; configuration not given here)
0.047 | CC(C)(C)[C@H](NC(=O)NC1(CS(=O)(=O)C(C)(C)C)CCCCC1)C(=O)N1C[C@H]2[C@@H]([C@H]1C(=O)N[C@@H](CCC1CC1)C(=O)C(=O)NC1CC1)C2(C)C [drawing 671]
0.06 | C=CCNC(=O)C(=O)[C@@H]1CCCCCCCCC[C@H](NC(=O)NC2(CS(=O)(=O)C(C)(C)C)CCCCC2)C(=O)N2C[C@H]3[C@@H]([C@H]2C(=O)N1)C3(C)C [drawing 699]
0.07 | CCCC(NC(=O)[C@@H]1[C@@H]2CCN1C(=O)[C@H](C(C)(C)C)NC(=O)Cc1cccc(c1)OCCCO2)C(=O)C(=O)NCC(=O)N[C@H](C(=O)N(C)C)c1ccccc1 (some centres unmarked)
